From article PMC8126724, “Infant-Associated Bifidobacterial β-Galactosidases and Their Ability to Synthesize Galacto-Oligosaccharides” (Frontiers in Microbiology, 2021)

How the values were obtained:
BgaE = system: T1, BgaE; experiment: o-nitrophenol release, A420; format: biochemical, Bifidobacterium longum subsp. longum; conditions: 0.1 M sodium acetate pH 6.5, 40 °C; unit mM, not in table
T1 construct: gene B8809_0611; tetramer
Text: o-nitrophenol release, A420 on BgaE

BgaD = system: T2, BgaD; experiment: o-nitrophenol release, A420; format: biochemical, Bifidobacterium longum subsp. longum; conditions: 0.1 M sodium acetate pH 6.5, 40 °C; unit mM, not in table
T2 construct: gene B8809_0415; His6-tagged, expressed in Lactococcus lactis (pNZ8150), Ni-purified; trimer
Text: o-nitrophenol release, A420 on BgaD

Km (BgaE): 11.1 mM | Km (BgaD): 17 mM
Compound: O=[N+]([O-])c1ccccc1O[C@@H]1O[C@H](CO)[C@H](O)[C@H](O)[C@H]1O [ONPG]
